{"source": "ChEMBL document CHEMBL6177971", "about": "“Iterative Optimization Yields Stapled Peptides with Superior Pharmacokinetics and Potency for Renal Fibrosis Treatment” (J Med Chem, 2025)", "key": {"[1]": {"test": "Half life in male C57BL/6J mouse at 2.8 mg/kg, iv measured for 3 to 240 mins by UHPLC-HRMS analysis", "format": "ADME, organism-based", "settings": "in vivo, time 3-240 min"}, "[2]": {"system": "NIH3T3", "test": "Inhibition of myofibroblast activation in TGF-beta1-induced EMT in mouse NIH3T3 cells assessed as decrease in TGF-beta1 mRNA level at 1 to 2 uM incubated for 48 hrs by qPCR analysis", "format": "functional, cell-based", "settings": "dose 1-2 µM"}, "[3]": {"system": "Mus musculus", "test": "Anti-fibrotic activity in C57BL/6J mouse model of unilateral ureteral obstruction assessed as decrease in fibronectin mRNA level at 0.25 mg/kg, ip administered every day for 7 days by qPCR analysis", "format": "functional, organism-based", "settings": "time 7.0 day"}, "[4]": {"system": "Mus musculus", "test": "Anti-fibrotic activity in C57BL/6J mouse model of unilateral ureteral obstruction assessed as decrease in MMP2 level at 0.25 mg/kg, ip administered every day for 7 days by Western blot analysis", "format": "functional, organism-based", "settings": "time 7.0 day"}, "[5]": {"system": "Mus musculus", "test": "Anti-fibrotic activity in C57BL/6J mouse model of unilateral ureteral obstruction assessed as decrease in vimentin level at 0.25 mg/kg, ip administered every day for 7 days by Western blot analysis", "format": "functional, organism-based", "settings": "time 7.0 day"}, "[6]": {"system": "NIH3T3", "test": "Inhibition of myofibroblast activation in TGF-beta1-induced EMT in mouse NIH3T3 cells assessed as decrease in fibronectin mRNA level at 1 to 2 uM incubated for 48 hrs by qPCR analysis", "format": "functional, cell-based", "settings": "dose 1-2 µM"}, "[7]": {"system": "NIH3T3", "test": "Inhibition of myofibroblast activation in TGF-beta1-induced EMT in mouse NIH3T3 cells assessed as decrease in MMP2 mRNA level at 1 to 2 uM incubated for 48 hrs by qPCR analysis", "format": "functional, cell-based", "settings": "dose 1-2 µM"}, "[8]": {"system": "NIH3T3", "test": "Inhibition of myofibroblast activation in TGF-beta1-induced EMT in mouse NIH3T3 cells assessed as decrease in MMP2 level at 1 to 2 uM incubated for 48 hrs by Western blot analysis", "format": "functional, cell-based", "settings": "dose 1-2 µM"}, "[9]": {"system": "HK-2", "test": "Inhibition of myofibroblast activation in TGF-beta1-induced EMT in human HK-2 cells assessed as increase in CDH-1 mRNA level at 1 to 5 uM incubated for 24 hrs by qPCR analysis", "format": "functional, cell-based", "settings": "dose 1-5 µM"}, "[10]": {"system": "Mus musculus", "test": "Anti-fibrotic activity in C57BL/6J mouse model of unilateral ureteral obstruction assessed as decrease in renal alpha-SMA […] level administered intraperitoneally every day for 7 days by IHC analysis", "format": "functional, organism-based", "settings": "dose 0.05-1.25 mg/kg, route ip, time 7.0 day"}, "[11]": {"system": "HK-2", "test": "Inhibition of myofibroblast activation in TGF-beta1-induced EMT in human HK-2 cells assessed as decrease in MMP2 mRNA level at 1 to 5 uM incubated for 24 hrs by qPCR analysis", "format": "functional, cell-based", "settings": "dose 1-5 µM"}, "[12]": {"system": "Mus musculus", "test": "Anti-fibrotic activity in C57BL/6J mouse model of unilateral ureteral obstruction assessed as decrease in renal inflammation at 0.05 to 1.25 mg/kg, ip administered every day for 7 days by H and E staining based analysis", "format": "functional, organism-based", "settings": "dose 0.05-1.25 mg/kg, time 7.0 day"}, "[13]": {"system": "Mus musculus", "test": "Anti-fibrotic activity in C57BL/6J mouse model of unilateral ureteral obstruction assessed as decrease in fibronectin level at 0.25 mg/kg, ip administered every day for 7 days by Western blot analysis", "format": "functional, organism-based", "settings": "time 7.0 day"}, "[14]": {"system": "HK-2", "test": "Cytotoxicity against human HK-2 cells assessed as inhibition of cell viability at 160 uM incubated for 24 hrs by CCK8 assay", "format": "toxicity, cell-based", "settings": "hk-2, 24 h"}, "[15]": {"test": "Clearance in male C57BL/6J mouse at 2.8 mg/kg, iv measured for 3 to 240 mins by UHPLC-HRMS analysis", "format": "ADME, organism-based", "settings": "in vivo, time 3-240 min"}, "[16]": {"system": "HK-2", "test": "Inhibition of myofibroblast activation in TGF-beta1-induced EMT in human HK-2 cells assessed as decrease in vimentin level at 1 to 5 uM incubated for 24 hrs by Western blot analysis", "format": "functional, cell-based", "settings": "dose 1-5 µM"}, "[17]": {"system": "Mus musculus", "test": "Anti-fibrotic activity in C57BL/6J mouse model of unilateral ureteral obstruction assessed as decrease in TGF-beta1 mRNA level at 0.25 mg/kg, ip administered every day for 7 days by qPCR analysis", "format": "functional, organism-based", "settings": "time 7.0 day"}, "[18]": {"system": "NIH3T3", "test": "Inhibition of myofibroblast activation in TGF-beta1-induced EMT in mouse NIH3T3 cells assessed as decrease in vimentin mRNA level at 1 to 2 uM incubated for 48 hrs by qPCR analysis", "format": "functional, cell-based", "settings": "dose 1-2 µM"}, "[19]": {"system": "HK-2", "test": "Inhibition of myofibroblast activation in TGF-beta1-induced EMT in human HK-2 cells assessed as decrease in fibronectin level at 1 to 10 uM incubated for 24 hrs by Western blot analysis", "format": "functional, cell-based", "settings": "dose 1-10 µM"}, "[20]": {"system": "Mus musculus", "test": "Anti-fibrotic activity in C57BL/6J mouse model of unilateral ureteral obstruction assessed as decrease in alpha-SMA level at 0.25 mg/kg, ip administered every day for 7 days by Western blot analysis", "format": "functional, organism-based", "settings": "time 7.0 day"}, "[21]": {"system": "NIH3T3", "test": "Inhibition of myofibroblast activation in TGF-beta1-induced EMT in mouse NIH3T3 cells assessed as decrease in collagen I level at 1 to 2 uM incubated for 48 hrs by Western blot analysis", "format": "functional, cell-based", "settings": "dose 1-2 µM"}, "[22]": {"system": "NIH3T3", "test": "Inhibition of myofibroblast activation in TGF-beta1-induced EMT in mouse NIH3T3 cells assessed as decrease in vimentin level at 1 to 2 uM incubated for 48 hrs by Western blot analysis", "format": "functional, cell-based", "settings": "dose 1-2 µM"}, "[23]": {"system": "Mus musculus", "test": "Anti-fibrotic activity in C57BL/6J mouse model of unilateral ureteral obstruction assessed as decrease in vimentin mRNA level at 0.25 mg/kg, ip administered every day for 7 days by qPCR analysis", "format": "functional, organism-based", "settings": "time 7.0 day"}, "[24]": {"molecular_target": "Albumin (Bos taurus, UniProt P02769)", "sequence (P02769 whole entry)": "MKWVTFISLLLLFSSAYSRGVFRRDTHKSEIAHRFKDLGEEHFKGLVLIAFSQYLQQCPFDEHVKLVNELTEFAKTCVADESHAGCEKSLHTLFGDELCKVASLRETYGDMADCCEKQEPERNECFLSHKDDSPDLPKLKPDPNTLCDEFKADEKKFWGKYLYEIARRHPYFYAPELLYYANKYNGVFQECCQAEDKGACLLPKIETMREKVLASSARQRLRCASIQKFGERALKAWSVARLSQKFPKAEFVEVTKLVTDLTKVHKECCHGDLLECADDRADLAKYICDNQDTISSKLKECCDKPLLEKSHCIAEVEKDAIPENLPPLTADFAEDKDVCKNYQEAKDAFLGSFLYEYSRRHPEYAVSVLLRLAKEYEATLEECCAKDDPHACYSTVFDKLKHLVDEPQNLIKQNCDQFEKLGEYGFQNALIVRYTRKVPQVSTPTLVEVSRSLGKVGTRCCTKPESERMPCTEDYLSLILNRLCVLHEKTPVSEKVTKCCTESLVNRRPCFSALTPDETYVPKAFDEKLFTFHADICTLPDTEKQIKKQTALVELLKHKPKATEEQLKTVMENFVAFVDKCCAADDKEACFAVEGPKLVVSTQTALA", "test": "Binding affinity to bovine serum albumin assessed as dissociation constant by ITC analysis", "format": "ADME"}}, "note": "Calls of active or inactive are those of the source. The calls are words filed in the database; no cut-off is given here."}
{"smiles": "CCCCCCCCCCCC(=O)N[C@H](CC(=O)O)C(=O)N[C@@H](Cc1c[nH]cn1)C(=O)N[C@@H](CC(N)=O)C(=O)N[C@H]1CSCCCCCCSC[C@@H](C(N)=O)NC(=O)[C@@H](C)NC(=O)[C@H](CCC(N)=O)NC(=O)[C@@H]2CCCN2C1=O", "values": [{"measurement": "half-life", "setting": "[1]", "value": 64.6, "unit": "min"}, {"measurement": "inhibition", "setting": "[2]", "value": "Active"}, {"measurement": "Activity", "setting": "[3]", "value": "Active"}, {"measurement": "Activity", "setting": "[4]", "value": "Active"}, {"measurement": "Activity", "setting": "[5]", "value": "Active"}, {"measurement": "inhibition", "setting": "[6]", "value": "Active"}, {"measurement": "inhibition", "setting": "[7]", "value": "Active"}, {"measurement": "inhibition", "setting": "[8]", "value": "Active"}, {"measurement": "inhibition", "setting": "[9]", "value": "Active"}, {"measurement": "Activity", "setting": "[10]", "value": "Dose-dependent-effect"}, {"measurement": "inhibition", "setting": "[11]", "value": "Active"}, {"measurement": "Activity", "setting": "[12]", "value": "Active"}, {"measurement": "Activity", "setting": "[13]", "value": "Active"}, {"measurement": "Activity", "setting": "[14]", "value": "Non-toxic"}, {"measurement": "clearance", "setting": "[15]", "value": 0.467, "unit": "mL/min"}, {"measurement": "inhibition", "setting": "[16]", "value": "Active"}, {"measurement": "Activity", "setting": "[17]", "value": "Active"}, {"measurement": "inhibition", "setting": "[18]", "value": "Active"}, {"measurement": "inhibition", "setting": "[19]", "value": "Active; No Additional Suppression Observed At Concentrations Above 5 Î¼M"}, {"measurement": "Activity", "setting": "[20]", "value": "Active"}, {"measurement": "inhibition", "setting": "[21]", "value": "Active"}, {"measurement": "inhibition", "setting": "[22]", "value": "Active"}, {"measurement": "Activity", "setting": "[23]", "value": "Active"}, {"measurement": "Kd", "setting": "[24]", "value": 10.6, "unit": "µM"}]}
